Data on six sequences can be found in PMC9131871, “Impact of Micropolymorphism Outside the Peptide Binding Groove in the Clinically Relevant Allele HLA-C*14 on T Cell Responses in HIV-1 Infection” (Journal of Virology, 2022).

Holding throughout (type): cell-based, human
In assay [1] the test system is NL4-3-infected .221-C1402 and .221-C1403 cells. Briefly: ICS assay, peptide-specific bulk T cells against NL4-3-infected .221 cells. The following applies: IFN-γ ICS, p24+ cells 52% and 54%, not by uninfected .221 cells, triplicate assays. The protocol: We next investigated whether T cells specific for these peptides could recognize NL4-3-infected .221-C1402 or .221-C1403 cells.
FIG 5 Recognition of NL4-3-infected .221-CD4 cells by peptide-specific CD8^+ T cells. The response of bulk T cells specific for 6 peptides to NL4-3-infected .221-C1402 cells, NL4-3-infected .221-C1403 cells, NL4-3-infected 721.221 cells, uninfected .221-C1402 cells, and uninfected .221-C1403 cells was analyzed by ICS assay. The frequencies of p24^+ cells were as follows: NL4-3-infected .221-C1402 cells, 52%; NL4-3-infected .221-C1403 cells, 54%. The results are means and SDs from triplicate assays.
(§1) PBMCs from HIV-1-infected individuals were stimulated with 1 μM concentrations of the corresponding peptides and then cultured for 2 weeks in RPMI 1640 medium (Thermo Fisher) containing 10% FCS, 20 ng/mL of human recombinant interleukin 2 (rIL-2) (ProSpec), 1× minimal essential medium (MEM) nonessential amino acid solution (Gibco), and 1 mM sodium pyruvate solution (Gibco). Following T cell expansion, .221-C1402 cells or .221-C1403 cells prepulsed with each HIV-1 peptide or .221-C1402 cells or .221-C1403 cells infected with HIV-1 NL4-3 were added to a 96-well plate together with bulk-cultured T cells, and the cells were incubated for 4 h at 37°C with brefeldin A ([…]). The cells were then stained with Pacific blue (PB)-labeled anti-CD3 MAb (BioLegend), FITC-labeled anti-CD19 MAb (BioLegend), allophycocyanin (APC)-labeled anti-CD8 MAb (BioLegend), and a LIVE/DEAD fixable near-infrared (IR) dead-cell staining kit (Invitrogen) and subsequently fixed with 4% paraformaldehyde and incubated in permeabilization buffer (0.1% saponin–5% FBS–PBS). Thereafter, the cells were stained with phycoerythrin (PE)-labeled anti-IFN-γ MAb (BioLegend). Staining data were acquired on a FACSCanto II instrument (BD Biosciences) and analyzed using FlowJo 10.7.1 software.

In assay [2] the test system is .221-C1402 / .221-C1403 cells pulsed with peptide. Briefly: ICS assay, peptide-specific bulk T cells against peptide-pulsed .221 cells. The following applies: IFN-γ ICS, 1 μM peptide (autologous allele) or 0.01 to 10 nM (cross-recognition), triplicate assays. The procedure: To confirm the HLA-C*14-restriction of the T cell responses to the 6 NL4-3-derived peptides, we expanded T cells specific for these peptides by stimulating peripheral blood mononuclear cells (PBMCs) from responders with each peptide (HLA-C*14:02^+ responders for Gag AM9, Pol KM9, and Nef AL9 and HLA-C*14:03^+ responders for Gag LY9, Nef IF8, and Nef YT9). The cultured T cells were then tested for their ability to recognize the peptides presented on 721.221 cells expressing HLA-C*14:02 (.221-C1402 cells) or HLA-C*14:03 (.221-C1403 cells) and 721.221 cells by intracellular cytokine staining (ICS) assay. Both cell lines expressed similarly high levels of HLA-C*14, although the surface expression level of HLA-C*14 on the HLA-C*14:03-transfected line was higher than that on the HLA-C*14:02 line (the ratio of relative expression of HLA-C*14:03 to that of HLA-C*14:02 was approximately 1.3:1) (Fig. 4A). […] We further analyzed cross-recognition of .221-C1402 and .221-C1403 cells prepulsed with peptides at a range of different concentrations by T cells from HLA-C*14:02^+ and HLA-C*14:03^+ individuals.
FIG 4 HLA-C*14:02- and HLA-C*14:03-restricted T cell responses to 6 putative epitope peptides. (A) Histogram plots showing surface expression of HLA-C*14:02 or HLA-C*14:03 on .221-C14:02 or .221-C14:03 cells. The relative expression level of HLA-C*14:02 versus HLA-C*14:03 [(MFI of .221-C1402 stained with DT9 − MFI of .221-C1402 stained with the second antibody)/(MFI of .221-C1403 stained with DT9 − MFI of .221-C1403 stained with the second antibody)] is 1.3. (B and C) Gag LY9-, Gag AM9-, Pol KM9-, Nef YT9-, Nef IF8-, and Nef AL9-specific bulk T cell populations were expanded by stimulating responders’ PBMCs with each peptide. The ability of these peptide-specific bulk T cells to recognize peptide-pulsed .221 cells expressing HLA-C*14 molecules was then analyzed by ICS assay. (B) T cell recognition of .221 cells expressing the patient’s autologous HLA-C*14 allele and non-HLA-C*14-expressing cells pulsed with 1 μM peptide. (C) T cell recognition of HLA-C*14:02 or HLA-C*14:03-expressing cells pulsed with the indicated peptides at concentrations from 0.01 to 10 nM was analyzed by an ICS assay. The results are means and SDs from triplicate assays.
as §1

Assay [3] deals with PBMCs from HIV-1-infected HLA-C*14:02+ or HLA-C*14:03+ individuals. In words: ex vivo IFN-γ ELISPOT assay. Conditions: for Responder (number), 1402+: 30 HLA-C*14:02+ treatment-naive individuals; for Responder (number), 1402+ / Responder (number), 1403+: positive >100 spots/10^6 PBMCs; for Responder (number), 1403+: 30 HLA-C*14:03+ treatment-naive individuals; for frequency of individuals showing responses of >100 spot-forming cells/10^6 PBMCs: 60 HLA-C*14:02/C*14:03 treatment-naive individuals (30 + 30).

As to IYHTQGYF [Nef IF8], the “activation of peptide-specific T cells by NL4-3-infected .221-C1402 and .221-C1403 cells” value (“activation of peptide-specific T cells” below) in assay [1] is “Strong functional activation”. In assay [2], the “recognition of peptide-pulsed .221 cells by peptide-specific bulk T cells” value (“recognition of peptide-pulsed .221 cells” for short) is “recognized the epitope peptide-pulsed .221 cells expressing their autologous HLA-C*14 allele”. Besides, in assay [3] (1 μM peptide), the “Responder (number), 1402+” value came to 6; the “Responder (number), 1403+” value turned out to be 6; the “frequency of individuals showing responses of >100 spot-forming cells/10^6 PBMCs” value (“frequency” for short) was 20%.
For the sequence AFSPEVIPM [Gag AM9], the “activation of peptide-specific T cells” value in assay [1] is reported as “Strong functional activation”. In addition, in assay [2], the “recognition of peptide-pulsed .221 cells” value is recorded as “recognized the epitope peptide-pulsed .221 cells expressing their autologous HLA-C*14 allele”. For the same sequence, in assay [3] (1 μM peptide), the “Responder (number), 1402+” value was found to be 16; the “Responder (number), 1403+” value was found to be 18; the “frequency” value is recorded as 56%.
As for YFPDWQNYT [Nef YT9], the “activation of peptide-specific T cells” value in assay [1] is reported as “Strong functional activation”. Moreover, the “recognition of peptide-pulsed .221 cells” value in assay [2] is recorded as “recognized the epitope peptide-pulsed .221 cells expressing their autologous HLA-C*14 allele”. Also, in assay [3] (1 μM peptide), the “Responder (number), 1402+” value was found to be 12; the “Responder (number), 1403+” value came out at 7; the “frequency” value was found to be 31%.
As to KYHSNWRAM [Pol KM9], the “activation of peptide-specific T cells” value in assay [1] is recorded as “Strong functional activation”. Further, the “recognition of peptide-pulsed .221 cells” value in assay [2] is recorded as “recognized the epitope peptide-pulsed .221 cells expressing their autologous HLA-C*14 allele”. In assay [3] (1 μM peptide), the “Responder (number), 1402+” value is 4; the “Responder (number), 1403+” value was found to be 0; the “frequency” value is given as 6.6%. Also, the “magnitude of T cell responses, compared between groups” value in assay [3] (60 individuals, HLA-C*14:02+ versus HLA-C*14:03+ (or Gag versus Pol/Nef epitopes), Mann-Whitney test) is “significantly higher”.
For LYNTIAVLY [Gag LY9], the “activation of peptide-specific T cells” value in assay [1] is “Strong functional activation”. For the same sequence, the “recognition of peptide-pulsed .221 cells” value in assay [2] is recorded as “recognized the epitope peptide-pulsed .221 cells expressing their autologous HLA-C*14 allele”. Besides, the “number of individuals with response, of 60 HLA-C*14+ Japanese individuals” value in assay [3] (1 μM peptide, relatively strong responses) came out at 11. In assay [3] (1 μM peptide), the “Responder (number), 1402+” value was found to be 6; the “Responder (number), 1403+” value was 5; the “frequency” value is reported as 18%.
As for AFHHVAREL [Nef AL9], the “activation of peptide-specific T cells” value in assay [1] was “Strong functional activation”. Further, the “recognition of peptide-pulsed .221 cells” value in assay [2] is recorded as “recognized the epitope peptide-pulsed .221 cells expressing their autologous HLA-C*14 allele”. Further, in assay [3] (1 μM peptide), the “Responder (number), 1402+” value is on record as 2; the “Responder (number), 1403+” value came out at 1; the “frequency” value is listed as 5%.
